Laboratory results from ChEMBL document CHEMBL1122054, “Lysosomotropic agents. 4. Carbobenzoxyglycylphenylalanyl, a new protease-sensitive masking group for introduction into cells” (J Med Chem, 1982).

Columns and labels:
Mus musculus [1] = species: Mus musculus; experiment: Toxicity was evaluated for the compound at a concentration of 0.312 mM against […] Mastocytoma.; assay type: functional
Mus musculus [2] = species: Mus musculus; experiment: Evaluated for the percent inhibition uptake of radiolabeled leucine as a measure of inhibition of protein synthesis i.e., cell death against the SV40-transformed 3T3 cells at 4 hr at the concentration of 6Mx10E4 for expt VII; assay type: functional, NIH3T3
Mus musculus [3] = species: Mus musculus; experiment: Evaluated for the percent inhibition uptake of radiolabeled thymidine as a measure of inhibition of cell division against the L1210 cells after 4 hr at the concentration of 1.5x10E4M; assay type: functional
Mus musculus [4] = species: Mus musculus; experiment: Evaluated for the percent inhibition uptake of radiolabeled thymidine as a measure of inhibition of cell division against the SV40-transformed 3T3 cells after 4 hr at the concentration of 1x10E4M for experiment XI; assay type: functional, NIH3T3
Mus musculus [5] = species: Mus musculus; experiment: Toxicity was evaluated for the compound at a concentration of 0.104 mM against […] Mastocytoma.; assay type: functional
Mus musculus [6] = species: Mus musculus; experiment: Toxicity toward P-815 Mastocytoma cells after 5 hr was determined as percent of [51Cr]- release from labeled cells as a measure of cell death at a concentration of 0.312 mM (expt IV); assay type: functional
Mus musculus [7] = species: Mus musculus; experiment: Evaluated for the percent inhibition uptake of radiolabeled thymidine as a measure of inhibition of cell division against the SV40-transformed 3T3 cells at 4 hr at the concentration of 6Mx10E4 for expt VI; assay type: functional, NIH3T3
Mus musculus [8] = species: Mus musculus; experiment: Evaluated for the percent inhibition uptake of radiolabeled thymidine as a measure of inhibition of cell division against the SV40-transformed 3T3 cells at the concentration of 3*10^-4M after 8 hr; assay type: functional, NIH3T3
Mus musculus [9] = species: Mus musculus; experiment: Evaluated for the percent inhibition uptake of radiolabeled thymidine as a measure of inhibition of cell division against the L1210 cells after 4 hr at the concentration of 0.5x10E4M; assay type: functional
Mus musculus [10] = species: Mus musculus; experiment: Evaluated for the percent inhibition uptake of radiolabeled leucine as a measure of inhibition of protein synthesis i.e., cell death against the SV40-transformed 3T3 cells at 4 hr at the concentration of 1Mx10E4 for expt VII; assay type: functional, NIH3T3
Mus musculus [11] = species: Mus musculus; experiment: Toxicity toward P-815 Mastocytoma cells after 5 hr was determined as percent of [51Cr]- release from labeled cells as a measure of cell death at a concentration of 0.208 mM (expt IV); assay type: functional
Mus musculus [12] = species: Mus musculus; experiment: Evaluated for the percent inhibition uptake of radiolabeled leucine as a measure of inhibition of protein synthesis i.e., cell death against the SV40-transformed 3T3 cells at 4 hr at the concentration of 1Mx10E4 for expt VIII; assay type: functional, NIH3T3
Mus musculus [13] = species: Mus musculus; experiment: Evaluated for the percent inhibition uptake of radiolabeled thymidine as a measure of inhibition of cell division against the SV40-transformed 3T3 cells at 4 hr at the concentration of 10Mx10E4 for expt VII; assay type: functional, NIH3T3
Mus musculus [14] = species: Mus musculus; experiment: Evaluated for the percent inhibition uptake of radiolabeled thymidine as a measure of inhibition of cell division against the SV40-transformed 3T3 cells at 4 hr at the concentration of 6Mx10E4 for expt VII; assay type: functional, NIH3T3
Mus musculus [15] = species: Mus musculus; experiment: Evaluated for the percent inhibition uptake of radiolabeled leucine as a measure of inhibition of protein synthesis i.e., cell death against the SV40-transformed 3T3 cells at 4 hr at the concentration of 3Mx10E4 for expt VIII; assay type: functional, NIH3T3
Mus musculus [16] = species: Mus musculus; experiment: Evaluated for the percent inhibition uptake of radiolabeled thymidine as a measure of inhibition of cell division against the SV40-transformed 3T3 cells after 4 hr at the concentration of 3x10E4M for experiment X; assay type: functional, NIH3T3
Mus musculus [17] = species: Mus musculus; experiment: Evaluated for the percent inhibition uptake of radiolabeled thymidine as a measure of inhibition of cell division against the L1210 cells after 4 hr at the concentration of 3.0x10E4M; assay type: functional
Mus musculus [18] = species: Mus musculus; experiment: Toxicity toward P-815 Mastocytoma cells after 5 hr was determined as percent of [51Cr]- release from labeled cells as a measure of cell death at a concentration of 0.104 mM (expt IV); assay type: functional
Mus musculus [19] = species: Mus musculus; experiment: Evaluated for the percent inhibition uptake of radiolabeled thymidine as a measure of inhibition of cell division against the SV40-transformed 3T3 cells at 4 hr at the concentration of 1Mx10E4 for expt VII; assay type: functional, NIH3T3
Mus musculus [20] = species: Mus musculus; experiment: Toxicity was evaluated for the compound at a concentration of 0.208 mM against […] Mastocytoma.; assay type: functional
Mus musculus [21] = species: Mus musculus; experiment: Evaluated for the percent inhibition uptake of radiolabeled thymidine as a measure of inhibition of cell division against the SV40-transformed 3T3 cells after 4 hr at the concentration of 3x10E4M for experiment XI; assay type: functional, NIH3T3
Mus musculus [22] = species: Mus musculus; experiment: Evaluated for the percent inhibition uptake of radiolabeled thymidine as a measure of inhibition of cell division against the SV40-transformed 3T3 cells at the concentration of 3*10^-4M after 24 hr; assay type: functional, NIH3T3
Mus musculus [23] = species: Mus musculus; experiment: Toxicity toward P-815 Mastocytoma cells after 5 hr was determined as percent of [51Cr]- release from labeled cells as a measure of cell death at a concentration of 0.208 mM (expt III); assay type: functional
Mus musculus [24] = species: Mus musculus; experiment: Evaluated for the percent inhibition uptake of radiolabeled thymidine as a measure of inhibition of cell division against the SV40-transformed 3T3 cells at 4 hr at the concentration of 4Mx10E4 for expt VII; assay type: functional, NIH3T3
Mus musculus [25] = species: Mus musculus; experiment: Evaluated for the percent inhibition uptake of radiolabeled thymidine as a measure of inhibition of cell division against the SV40-transformed 3T3 cells after 4 hr at the concentration of 6x10E4M for experiment XI; assay type: functional, NIH3T3
Mus musculus [26] = species: Mus musculus; experiment: Evaluated for the percent inhibition uptake of radiolabeled thymidine as a measure of inhibition of cell division against the SV40-transformed 3T3 cells at 4 hr at the concentration of 3Mx10E4 for expt VII; assay type: functional, NIH3T3
Mus musculus [27] = species: Mus musculus; experiment: Evaluated for the percent inhibition uptake of radiolabeled thymidine as a measure of inhibition of cell division against the SV40-transformed 3T3 cells after 4 hr at the concentration of 6x10E4M for experiment X; assay type: functional
Mus musculus [28] = species: Mus musculus; experiment: Evaluated for the percent inhibition uptake of radiolabeled thymidine as a measure of inhibition of cell division against the SV40-transformed 3T3 cells at 4 hr at the concentration of 3Mx10E4 for expt VI; assay type: functional, NIH3T3
Mus musculus [29] = species: Mus musculus; experiment: Toxicity toward P-815 Mastocytoma cells after 5 hr was determined as percent of [51Cr]- release from labeled cells as a measure of cell death at a concentration of 0.312 mM (expt V); assay type: functional
Mus musculus [30] = species: Mus musculus; experiment: Evaluated for the percent inhibition uptake of radiolabeled thymidine as a measure of inhibition of cell division against the SV40-transformed 3T3 cells at the concentration of 3*10^-4M after 3h; assay type: functional, NIH3T3
Mus musculus [31] = species: Mus musculus; experiment: Evaluated for the percent inhibition uptake of radiolabeled thymidine as a measure of inhibition of cell division against the SV40-transformed 3T3 cells at 4 hr at the concentration of 1Mx10E4 for expt VI; assay type: functional
Mus musculus [32] = species: Mus musculus; experiment: Evaluated for the percent inhibition uptake of radiolabeled thymidine as a measure of inhibition of cell division against the SV40-transformed 3T3 cells at the concentration of 3*10^-4M after 4 hr; assay type: functional, NIH3T3
Mus musculus [33] = species: Mus musculus; experiment: Evaluated for the percent inhibition uptake of radiolabeled leucine as a measure of inhibition of protein synthesis i.e., cell death against the SV40-transformed 3T3 cells at 4 hr at the concentration of 6Mx10E4 for expt VIII; assay type: functional, NIH3T3
Mus musculus [34] = species: Mus musculus; experiment: Evaluated for the percent inhibition uptake of radiolabeled thymidine as a measure of inhibition of cell division against the SV40-transformed 3T3 cells at the concentration of 3*10^-4M after 6 hr; assay type: functional, NIH3T3
Mus musculus [35] = species: Mus musculus; experiment: Evaluated for the percent inhibition uptake of radiolabeled thymidine as a measure of inhibition of cell division against the SV40-transformed 3T3 cells after 4 hr at the concentration of 1x10E4M for experiment X; assay type: functional
Mus musculus [36] = species: Mus musculus; experiment: Evaluated for the percent inhibition uptake of radiolabeled leucine as a measure of inhibition of protein synthesis i.e., cell death against the SV40-transformed 3T3 cells at 4 hr at the concentration of 3Mx10E4 for expt VII; assay type: functional, NIH3T3
Mus musculus [37] = species: Mus musculus; experiment: Evaluated for the percent inhibition uptake of radiolabeled thymidine as a measure of inhibition of cell division against the SV40-transformed 3T3 cells after 4 hr at the concentration of 3x10E4M; assay type: functional, NIH3T3
Mus musculus [38] = species: Mus musculus; experiment: Evaluated for the percent inhibition uptake of radiolabeled thymidine as a measure of inhibition of cell division against the SV40-transformed 3T3 cells after 4 hr at the concentration of 6; assay type: functional, NIH3T3
Mus musculus [39] = species: Mus musculus; experiment: Evaluated for the percent inhibition uptake of radiolabeled thymidine as a measure of inhibition of cell division against the SV40-transformed 3T3 cells after 4 hr at the concentration of 1x10E4M; assay type: functional, NIH3T3

SMILES: O=C(CNC(=O)OCc1ccccc1)N[C@H](Cc1ccccc1)C(=O)N(CCCl)CCCl
- Toxicity (Mus musculus [1]): 150 µg/mL
- Inhibition uptake (Mus musculus [2]): 36%
- Inhibition uptake (Mus musculus [3]): 57%
- Inhibition uptake (Mus musculus [4]): 36%
- Toxicity (Mus musculus [5]): 50 µg/mL
- Cr release (Mus musculus [6]): 34%
- Inhibition uptake (Mus musculus [7]): 93%
- Inhibition uptake (Mus musculus [8]): 86%
- Inhibition uptake (Mus musculus [9]): 28%
- Inhibition uptake (Mus musculus [10]): -1%
- Cr release (Mus musculus [11]): 27%
- Inhibition uptake (Mus musculus [12]): 5%
- Inhibition uptake (Mus musculus [13]): 92%
- Inhibition uptake (Mus musculus [14]): 70%
- Inhibition uptake (Mus musculus [15]): 33%
- Inhibition uptake (Mus musculus [16]): 46%
- Inhibition uptake (Mus musculus [17]): 76%
- Cr release (Mus musculus [18]): 22%
- Inhibition uptake (Mus musculus [19]): 12%
- Toxicity (Mus musculus [20]): 100 µg/mL
- Inhibition uptake (Mus musculus [21]): 36%
- Inhibition uptake (Mus musculus [22]): 88%
- Cr release (Mus musculus [23]): 29%
- Inhibition uptake (Mus musculus [24]): 61%
- Inhibition uptake (Mus musculus [25]): 75%
- Inhibition uptake (Mus musculus [26]): 46%
- Inhibition uptake (Mus musculus [27]): 90%
- Inhibition uptake (Mus musculus [28]): 60%
- Cr release (Mus musculus [29]): 19%
- Inhibition uptake (Mus musculus [30]): 76%
- Inhibition uptake (Mus musculus [31]): 7%
- Inhibition uptake (Mus musculus [32]): 80%
- Inhibition uptake (Mus musculus [33]): 83%
- Inhibition uptake (Mus musculus [34]): 83%
- Inhibition uptake (Mus musculus [35]): 14%
- Inhibition uptake (Mus musculus [36]): 10%

SMILES: NCC(=O)N[C@H](Cc1ccccc1)C(=O)N(CCCl)CCCl
- Inhibition uptake (Mus musculus [37]): 16%
- Inhibition uptake (Mus musculus [38]): 60%
- Inhibition uptake (Mus musculus [39]): 5%

SMILES: CC(C)(C)OC(=O)NCC(=O)N[C@H](Cc1ccccc1)C(=O)N(CCCl)CCCl
- Inhibition uptake (Mus musculus [37]): 33%
- Inhibition uptake (Mus musculus [38]): 52%
- Inhibition uptake (Mus musculus [39]): -4%
